This note sets out measurements from patent publication US20060206946A1, “Method of disrupting heme transport in nematodes and of modelling and evaluating eukaryotic heme transport” (priority 2005, published 2006).

For assay [1], the system named is C. elegans. The class given is in vivo, Caenorhabditis elegans. To be noted: pulse 40 μM ZnMP 3 h. As to the method:
(C) Fluorescent metabolic labeling of worms with either 40 μM hemin (images 1, 4) or 40 μM ZnMP/4 μM hemin (images 2, 3, 5, 6) for 3 h followed by confocal microscopy with a 546 laser (images 1-3) and DIC optics (images 4-6). Arrowheads indicate ZnMP fluorescence accumulation within intestinal cells and developing embryos. For clarity, the boxed image in 2 is magnified in images 3 and 6. (Bar=100 μm).
(D) Worms were incubated with 40 μM ZnMP/4 μM hemin for 16 h followed by a chase with 40 μM hemin. Worms were analyzed by epifluorescence microscopy (TRITC channel) and DIC optics. Experiments were performed either in the absence (images 1-4) or presence (images 5-8) of NaN3 during the chase periods to test for the non-specific loss of ZnMP fluorescence. Photomicrograph 4 is shown at a lower power to depict the complete loss of ZnMP fluorescence. (Bar=100 μm). For (C) and (D), four separate experiments were performed with a minimum of 50 worms per data point per experiment. The data are representative for >90% of worms analyzed.
Because of the nature of the growth curve, we reasoned that heme homeostatis in C. elegans may be regulated in accordance with organismic needs and metabolic demands. […]
Pulse-Chase Analysis. […] At timed intervals, aliquots of worms were removed into the appropriate medium containing 10 mM NaN3 mounted on a slide and immediately analyzed with a 543 He/Ne laser on a Zeiss 410 confocal microscope, or with a Peltier-cooled Retiga 1300 12-bit CCD camera fitted on to a Leica DMIRE2 autofluorescence/DIC microscope. Images were further analyzed with SIMPLEPCI v5.2 Software (Compix, Inc.). […] No loss of fluorescence was observed when labeling experiments were performed in parallel in the presence of 1 mM NaN3 during the chase period and when worms were incubated in medium without hemin. To account for background autouluorescence in C. elegans, the sensor gain of the CCD camera or the laser was set to subtract any fluorescence obtained from control worms incubated in the presence of 40 μM hemin.

For assay [2], the system named is C. elegans genes transcriptionally regulated by heme. As to the kind of experiment: Affymetrix C. elegans Genome Array: genes transcriptionally regulated by heme (4 and 500 μM vs 20 μM hemin). Type of assay: in vivo, Caenorhabditis elegans. To be noted: low heme (4 μM). As to the method:
Worms were grown at 4 μM (low) 20 μM (optimal) and 500 μM (high) hemin in axenic CeHR medium. We chose 4 and 500 μM hemin because these heme concentrations were at either end of the worm growth spectrum, and worms at these heme concentrations show a ˜24 h growth delay compared to worms grown at 20 μM hemin. […] In order to eliminate maternal effect genes, wild-type N2 worms were grown for two synchronized generations in their respective hemin concentrations to obtain F2 worms at the […] as determined by morphological analysis of the vulva. F2 worms from all three heme conditions were harvested at the same mid-L4 stage for final RNA extraction. The RNA was extracted with Trizol and treated with RNase-free DNase to remove any contaminating DNA followed by a purification on a Qiagen RNeasy column. Each experiment was performed four independent times on four separate days to ensure proper sampling and to account for experimental variations. […]
From these genes, 58 genes were excluded because they were specific to germline, sperm or oocyte development, as determined by cross-checking with publicly available microarray databases. […]
The initial statistical analysis of the Affymetrix genome array was performed at the NIDDK microarray facility using Affymetrix MAS 5.0 Suite software. […] The standard error for ΔΔCt will be calculated by the method of Livak and Schmittgen. […]

Consider hemin chloride, for which, in assay [1], the “hemin concentration of growth medium giving dramatic decline in ZnMP fluorescence” value was ≥ 100 µM and the “hemin concentration of growth medium giving robust uptake of fluorescent ZnMP” value was ≤ 20 µM. The “upregulation of R02E12.6 in microarrays” value in assay [2] was determined as 16 fold.
